Publication PMC12586182 (Frontiers in Oncology, 2025)

How the values were obtained:
Assay in all cases: Cell viability assay (ATPlite)
Assay type in all cases: cell-based
MDA-MB-453 = settings: Homo sapiens; MDA-MB-453 cell line, 72 hours incubation
Method: (§1) Intracellular ATP content was used as an indirect readout of cell number using the ATPlite 1Step bioluminescence assay (Revvity, Groningen, the Netherlands). Cells were seeded in 384-well plates at an optimized density to ensure unrestricted growth and maximal signal at the end of the experiment. After 24 hours of incubation, the starting cell number was determined by adding ATPlite to each well of a control plate and recording luminescence on an Envision multimode reader (Revvity, Waltham, MA, USA) ([4]). Compounds were diluted in DMSO in √10-fold steps from 10 mmol/L stocks to obtain 9-point dilution series. After further 31.6-fold dilution in 20 mmol/L HEPES (pH 7.4), the dilution series were added in duplicate to the cells in the 384-well plates to determine the effect of the compounds on cell viability. Vehicle-treated controls were included to determine maximal cell proliferation. The final DMSO concentration was 0.4% (v/v) in all wells. After incubation for an additional 72 hours, the ATP content was measured in each well using ATPlite. The luminescent signal in inhibitor-treated wells was normalized to vehicle-treated control wells to determine the percentage viability at each concentration. Cell doublings were determined by relating the cell number of vehicle-treated controls to the starting cell number for each cell line. The viability assay of a cell line was repeated when the cell doubling deviated > 2-fold from the historic doubling as determined by multiple independent experiments. The quality of the complete assay was determined by a parallel test with doxorubicin on two cell lines. IC50 values were calculated by fitting a four-parameter logistic model to the percentage viability values using IDBS XLfit5 (IDBS, Guildford, United Kingdom). All curves were visually inspected and submitted to an F-test as implemented in IDBS XLfit5. Curves with an F-value above 1.5 were invalidated and IC50 values were maximized at the highest concentration.

SU-DHL-1 = settings: Homo sapiens; SU-DHL-1 cell line, 72 hours incubation
Method: as §1

COLO 205 = settings: Homo sapiens; COLO 205 cell line, 72 hours incubation
Method: as §1

NCI-H661 = settings: Homo sapiens; NCI-H661 cell line, 72 hours incubation
Method: as §1

ES-2 = settings: Homo sapiens; ES-2 cell line, 72 hours incubation
Method: as §1

SNU-5 = settings: Homo sapiens; SNU-5 cell line, 72 hours incubation
Method: as §1

SW982 = settings: Homo sapiens; SW982 cell line, 72 hours incubation
Method: as §1

HL-60 = settings: Homo sapiens; HL-60 cell line, 72 hours incubation
Method: as §1

SUP-T1 = settings: Homo sapiens; SUP-T1 cell line, 72 hours incubation
Method: as §1

SNU-16 = settings: Homo sapiens; SNU-16 cell line, 72 hours incubation
Method: as §1

NCI-H2452 = settings: Homo sapiens; NCI-H2452 cell line, 72 hours incubation
Method: as §1

BxPC-3 = settings: Homo sapiens; BxPC-3 cell line, 72 hours incubation
Method: as §1

PC-3 = settings: Homo sapiens; PC-3 cell line, 72 hours incubation
Method: as §1

G-361 = settings: Homo sapiens; G-361 cell line, 72 hours incubation
Method: as §1

Rh30 = settings: Homo sapiens; Rh30 cell line, 72 hours incubation
Method: as §1

HT-29 = settings: Homo sapiens; HT-29 cell line, 72 hours incubation
Method: as §1

HuTu 80 = settings: Homo sapiens, HuTu80; HuTu 80 cell line, 72 hours incubation
Method: as §1

SW480 = settings: Homo sapiens; SW480 cell line, 72 hours incubation
Method: as §1

MDA-MB-468 = settings: Homo sapiens; MDA-MB-468 cell line, 72 hours incubation
Method: as §1

HT = settings: Homo sapiens; HT cell line, 72 hours incubation
Method: as §1

SW626 = settings: Homo sapiens; SW626 cell line, 72 hours incubation
Method: as §1

UM-UC-3 = settings: Homo sapiens, UMUC3; UM-UC-3 cell line, 72 hours incubation
Method: as §1

NCC-IT = settings: Homo sapiens, NCCIT; NCC-IT cell line, 72 hours incubation
Method: as §1

NCI-H82 = settings: Homo sapiens; NCI-H82 cell line, 72 hours incubation
Method: as §1

HEC-251 = settings: Homo sapiens; HEC-251 cell line, 72 hours incubation
Method: as §1

CCRF-CEM = settings: Homo sapiens; CCRF-CEM cell line, 72 hours incubation
Method: as §1

BT-20 = settings: Homo sapiens; BT-20 cell line, 72 hours incubation
Method: as §1

JAR = settings: Homo sapiens; JAR cell line, 72 hours incubation
Method: as §1

RKO = settings: Homo sapiens; RKO cell line, 72 hours incubation
Method: as §1

11-18 = settings: Homo sapiens; 11-18 cell line, 72 hours incubation
Method: as §1

A-498 = settings: Homo sapiens, A498; A-498 cell line, 72 hours incubation
Method: as §1

SK-N-MC = settings: Homo sapiens; SK-N-MC cell line, 72 hours incubation
Method: as §1

What does the source list for O=C(c1ccc(Oc2ccccc2)cc1Cl)c1c[nH]c2ncnc(N[C@@H]3CC[C@@H](CO)OC3)c12 [nemtabrutinib]?
IC50 (MDA-MB-453): 5.32 µM; IC50 (SU-DHL-1): 6.22 µM; IC50 (COLO 205): 0.654 µM; IC50 (NCI-H661): 2.38 µM; IC50 (ES-2): 0.929 µM; IC50 (SNU-5): 8.05 µM; IC50 (SW982): 10.7 µM; IC50 (HL-60): 2.18 µM; IC50 (SUP-T1): 12.1 µM; IC50 (SNU-16): 1.81 µM; IC50 (NCI-H2452): 5.46 µM; IC50 (BxPC-3): 2.61 µM; IC50 (PC-3): 26.8 µM; IC50 (G-361): 1.08 µM; IC50 (Rh30): 5.52 µM; IC50 (HT-29): 0.369 µM; IC50 (HuTu 80): 1.68 µM; IC50 (SW480): 3.34 µM; IC50 (MDA-MB-468): 6.25 µM; IC50 (HT): > 31.6 µM; IC50 (SW626): 3.13 µM; IC50 (UM-UC-3): 5.35 µM; IC50 (NCC-IT): 4.62 µM; IC50 (NCI-H82): 12.3 µM; IC50 (HEC-251): 0.178 µM; IC50 (CCRF-CEM): 13.7 µM; IC50 (BT-20): 14.5 µM; IC50 (JAR): 18.1 µM; IC50 (RKO): 1.22 µM; IC50 (11-18): 2.62 µM; IC50 (A-498): 6.4 µM; IC50 (SK-N-MC): 7.4 µM
